Experimental data reported in patent US20250136576A1, “Heterocyclic Compounds and Uses Thereof” (ACEA Therapeutics, Inc., priority 2021, published 2025).
Where two headings read alike, the source gives them in different places.

What was measured:
[1] = test system: KM12-luc cells; assay: Cell proliferation and growth inhibition assay (CCK-8) in KM12-luc; assay type: cell-based; settings: KM12-luc cells, treated with test compounds for 72 hrs, CCK-8 viability, read-out: NTRK IC50 in KM12-luc
In short: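 IC50 values were fitted by sigmoidal dose-response non-linear regression of CCK-8 OD450 absorbance after 1-4 hrs with reagent. Culture media were IMDM for MV-4-11, RPMI 1640 for H1975 and DMEM for KM12-luc, each with 10% FBS at 37 °C, 5% CO2.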

[2] = test system: H1975 cells; assay: Cell proliferation and growth inhibition assay (CCK-8) in H1975; assay type: cell-based; settings: treated with test compounds for 72 hrs, CCK-8 viability, read-out: EGFR IC50 in H1975
Protocol: MV-4-11 and H1975 cells were obtained from the American Type Culture Collection and KM12-luc cells were obtained from JCRB Cell Bank. All cell lines were maintained at 37° C. with 5% C02, in media supplemented with 10% fetal bovine serum and penicillin (100 units/mL) and streptomycin (100 μg/mL). MV-4-11 cells were maintained in Iscove's Modified Dubecco's Medium, H1975 cells were cultured with RPMI 1640 media, and KM12-luc cells were maintained in Dulbecco's Modification of Eagle's Medium. CCK-8 reagent was obtained from Yeasen.
Cell proliferation was assessed by CCK-8 assay (Yeasen) per the manufacturer's instructions. The MV-4-11 (AML), H1975, and KM12-luc cells were seeded at 30,000, 3,000 and 2,500 cells per well onto 96-well plates, and after a 24 h incubation, the cells were treated with test compounds for 72 hrs. Cell viability was assayed by incubating the cells with CCK-8 reagent for 1-4 hrs. Absorbance was measured at OD450 using the Beckman DTX880. The data was calculated using GraphPad Prism version 6.01. The IC50 values were fitted using a non-linear regression model with a sigmoidal dose response.

Row | SMILES | IC50 ([2]; Homo sapiens, NCI-H1975, 72 h) [nM] | IC50 [2] [nM] | IC50 ([1]; KM12-Luc, 72 h) [nM] | IC50 [1] [nM]
1 | CC(=O)Nc1cc(Nc2ncc(Cl)c(-c3c[nH]c4ccccc34)n2)cc(F)c1N1CCC(N(C)C)C1 (stereo not shown) [Compound 392, N-(5-((5-chloro-4-(1H-indol-3-yl)pyrimidin-2-yl)amino)-2-(3-(dimethylamino)pyrrolidin-1-yl)-3-fluorophenyl)acetamide] | 862 | – | 18.1 | –
2 | CCN(CCN(C)C)c1ccc(Nc2ncc(Cl)c(-c3c[nH]c4ccccc34)n2)cc1NC(C)=O [Compound 442, N-(5-((5-chloro-4-(1H-indol-3-yl)pyrimidin-2-yl)amino)-2-((2-(dimethylamino)ethyl)(ethyl)amino)phenyl)acetamide] | 328 | – | 6.4 | –
3 | CCC(=O)Nc1cccc(Nc2ncc(F)c(Nc3ccc(N4CCN(C(C)=O)CC4)cc3OC)n2)c1 [Compound 156, N-(3-((4-((4-(4-acetylpiperazin-1-yl)-2-methoxyphenyl)amino)-5-fluoropyrimidin-2-yl)amino)phenyl)propionamide] | 2800 | – | 370 | –
4 | CC(=O)Nc1cc(Nc2ncc(C(F)(F)F)c(-c3cn(C)c4c(C)cccc34)n2)ccc1N(C)CCN(C)C [Compound 368, N-(5-((4-(1,7-dimethyl-1H-indol-3-yl)-5-(trifluoromethyl)pyrimidin-2-yl)amino)-2-((2-(dimethylamino)ethyl)(methyl)amino)phenyl)acetamide] | 356 | – | 22.9 | –
5 | CC(=O)Nc1cc(Nc2ncc(C(F)(F)F)c(-c3c[nH]c4c(C)cccc34)n2)c(F)cc1N(C)CCN(C)C [Compound 362, N-(2-((2-(dimethylamino)ethyl)(methyl)amino)-4-fluoro-5-((4-(7-methyl-1H-indol-3-yl)-5-(trifluoromethyl)pyrimidin-2-yl)amino)phenyl)acetamide] | 18.6 | – | 32.6 | –
6 | CC(=O)Nc1cc(Nc2ncc(Cl)c(-c3c[nH]c4c(C)cccc34)n2)ccc1N(C)CCN(C)C [Compound 423, N-(5-((5-chloro-4-(7-methyl-1H-indol-3-yl)pyrimidin-2-yl)amino)-2-((2-(dimethylamino)ethyl)(methyl)amino)phenyl)acetamide] | 66.5 | – | 4.7 | –
7 | COc1cccc2c(-c3nc(Nc4ccc(N(C)CCN(C)C)c(NC(C)=O)c4)ncc3Cl)c[nH]c12 [Compound 433, N-(5-(5-chloro-4-(7-methoxy-1H-indol-3-yl)pyrimidin-2-ylamino)-2-((2-(dimethylamino)ethyl)(methyl)amino)phenyl)acetamide] | 506 | – | 13.9 | –
8 | CC(=O)Nc1cc(Nc2ncc(C(F)(F)F)c(-c3cn(C)c4ccccc34)n2)ccc1N(C)CCN(C)C [Compound 305, N-(2-((2-(dimethylamino)ethyl)(methyl)amino)-5-((4-(1-methyl-1H-indol-3-yl)-5-(trifluoromethyl)pyrimidin-2-yl)amino)phenyl)acetamide] | – | 653 | – | 28.9
9 | CC(=O)Nc1cc(Nc2ncc(C(F)(F)F)c(-c3c[nH]c4cccc(F)c34)n2)ccc1N(C)CCN(C)C [Compound 316, N-(2-((2-(dimethylamino)ethyl)(methyl)amino)-5-((4-(4-fluoro-1H-indol-3-yl)-5-(trifluoromethyl)pyrimidin-2-yl)amino)phenyl)acetamide] | 477 | – | 21.6 | –
10 | CCN(CCN(C)C)c1cc(F)c(Nc2nc(-c3cn(C)c4ccccc34)c3cc[nH]c3n2)cc1NC(C)=O [Compound 201, N-(2-((2-(dimethylamino)ethyl)(ethyl)amino)-4-fluoro-5-((4-(1-methyl-1H-indol-3-yl)-7H-pyrrolo[2,3-d]pyrimidin-2-yl)amino)phenyl)acetamide] | 1100 | – | 444 | –
11 | COc1cccc2c(-c3nc(Nc4ccc(N5CC[C@@H](N(C)C)C5)c(NC(C)=O)c4)ncc3C(F)(F)F)cn(C)c12 [Compound R-389, (R)—N-(2-(3-(dimethylamino)pyrrolidin-1-yl)-5-((4-(7-methoxy-1-methyl-1H-indol-3-yl)-5-(trifluoromethyl)pyrimidin-2-yl)amino)phenyl)acetamide] | 940 | – | 24.8 | –
12 | CC(=O)Nc1cc(Nc2ncc(Cl)c(-c3c[nH]c4c(F)cccc34)n2)ccc1N(C)CCN(C)C [Compound 412, N-(5-((5-chloro-4-(7-fluoro-1H-indol-3-yl)pyrimidin-2-yl)amino)-2-((2-(dimethylamino)ethyl)(methyl)amino)phenyl)acetamide] | 380 | – | 8.4 | –
13 | CCC(=O)Nc1cc(Nc2ncc(C(F)(F)F)c(-c3c[nH]c4ccccc34)n2)ccc1N(C)CCN(C)C [Compound 298, N-(5-((4-(1H-indol-3-yl)-5-(trifluoromethyl)pyrimidin-2-yl)amino)-2-((2-(dimethylamino)ethyl)(methyl)amino)phenyl)propionamide] | 289 | – | 44 | –

More lines, main results first:

Row | IC50 ([2]; Homo sapiens, NCI-H1975, 72 h) [nM] | IC50 [2] [nM] | SMILES | IC50 ([1]; KM12-Luc, 72 h) [nM] | IC50 [1] [nM]
14 | 1660 | – | CCC(=O)Nc1cc(Nc2nc(-c3cn(C)c4ccccc34)c3cc[nH]c3n2)ccc1N(CC)CCN(C)C [Compound 212b, N-(2-((2-(dimethylamino)ethyl)(ethyl)amino)-5-((4-(1-methyl-1H-indol-3-yl)-7H-pyrrolo[2,3-d]pyrimidin-2-yl)amino)phenyl)propionamide] | 37 | –
15 | 461 | – | CC(=O)Nc1cc(Nc2ncc(C(F)(F)F)c(-c3cn(C)c4c(C)cccc34)n2)ccc1N1CC[C@H](N(C)C)C1 [Compound S-373, (S)—N-(5-((4-(1,7-dimethyl-1H-indol-3-yl)-5-(trifluoromethyl)pyrimidin-2-yl)amino)-2-(3-(dimethylamino)pyrrolidin-1-yl)phenyl)acetamide] | 21.1 | –
16 | 898 | – | COc1cccc2c(-c3nc(Nc4ccc(N5CC[C@H](N(C)C)C5)c(NC(C)=O)c4)ncc3C(F)(F)F)cn(C)c12 [Compound S-389, (S)—N-(2-(3-(dimethylamino)pyrrolidin-1-yl)-5-((4-(7-methoxy-1-methyl-1H-indol-3-yl)-5-(trifluoromethyl)pyrimidin-2-yl)amino)phenyl)acetamide] | 23.5 | –
17 | 1560 | – | COc1cccc2c(-c3nc(Nc4ccc(N5CC[C@H](N(C)C)C5)c(NC(C)=O)c4)ncc3Cl)cn(C)c12 [Compound S-435, (S)—N-(5-(5-chloro-4-(7-methoxy-1-methyl-1H-indol-3-yl)pyrimidin-2-ylamino)-2-(3-(dimethylamino)pyrrolidin-1-yl)phenyl)acetamide] | 48.1 | –
18 | – | 1050 | CC(=O)Nc1cc(Nc2nc(-c3c[nH]c4ccccc34)c3cc[nH]c3n2)cc(F)c1N(C)CCN(C)C [Compound 248b, N-(5-((4-(1H-indol-3-yl)-7H-pyrrolo[2,3-d]pyrimidin-2-yl)amino)-2-((2-(dimethylamino)ethyl)(methyl)amino)-3-fluorophenyl)acetamide] | – | 17.1
19 | – | 442 | CC(=O)Nc1cc(Nc2nc(-c3c[nH]c4ccccc34)c3cc[nH]c3n2)cc(F)c1N(C)CCN(C)C [Compound 248a, N-(5-((4-(1H-indol-3-yl)-7H-pyrrolo[2,3-d]pyrimidin-2-yl)amino)-2-((2-(dimethylamino)ethyl)(methyl)amino)-3-fluorophenyl)acetamide] | 12.8 | –
20 | 1250 | – | COc1cnc(Nc2ccc(N3CC[C@H](N(C)C)C3)c(NC(C)=O)c2)nc1-c1c[nH]c2c(F)cccc12 [Compound S-280, (S)—N-(2-(3-(dimethylamino)pyrrolidin-1-yl)-5-((4-(7-fluoro-1H-indol-3-yl)-5-methoxypyrimidin-2-yl)amino)phenyl)acetamide] | 14.6 | –
